The text below walks through data of US20250235460A1, “COMBINATION THERAPY USING GLUCOSE-DEPENDENT INSULINOTROPIC POLYPEPTIDE RECEPTOR ANTAGONIST COMPOUNDS AND GLP-1 RECEPTOR AGONIST COMPOUNDS” (Pfizer Inc., priority 2024, published 2025).

In assay [1] the target is human GLP-1R (Homo sapiens, UniProt P43220, L260F). Nature of the assay: CHO GLP-1R Clone C6 cAMP HTRF agonist assay (Assay 2, low receptor density). Format: cell-based. The settings on record: for EC50: CHO GLP-1R clone C6, cAMP HTRF, geometric mean. From the text: In Table 5 and Table 6, assay data are presented to two (2) significant figures as the geometric mean (EC50s) and arithmetic mean (Emax) based on the number of replicates listed (Number). A blank cell means there was no data for that Example or the Emax was not calculated.
Sequence of human GLP-1R (Homo sapiens, UniProt P43220, L260F) (P43220 24-463 L260F): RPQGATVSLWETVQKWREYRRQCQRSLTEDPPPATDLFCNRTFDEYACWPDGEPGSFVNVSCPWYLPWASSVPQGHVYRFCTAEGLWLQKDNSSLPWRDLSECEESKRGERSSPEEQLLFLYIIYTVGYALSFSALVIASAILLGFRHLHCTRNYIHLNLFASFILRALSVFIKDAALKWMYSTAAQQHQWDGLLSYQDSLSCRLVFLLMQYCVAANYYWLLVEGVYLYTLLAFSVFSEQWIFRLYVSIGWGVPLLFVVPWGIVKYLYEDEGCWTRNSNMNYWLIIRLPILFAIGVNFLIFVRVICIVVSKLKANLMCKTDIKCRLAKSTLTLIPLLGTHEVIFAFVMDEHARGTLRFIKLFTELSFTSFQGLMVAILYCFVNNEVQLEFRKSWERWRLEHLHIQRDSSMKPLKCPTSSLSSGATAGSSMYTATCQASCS
(In general: TR-FRET usually uses a lanthanide donor and a delayed reading to cut background.)

Assay [2] deals with human GLP-1R (Homo sapiens, UniProt P43220, G168S). Put plainly: CHO GLP-1R Clone H6 cAMP HTRF agonist assay (Assay 1, high receptor density). As to conditions: for Emax: read-out: Assay 1 Emax (%); for EC50: CHO GLP-1R clone H6, cAMP HTRF, geometric mean. In kind it is cell-based. The essentials:
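Replicate runs were pooled. Potencies were averaged geometrically and maximal efficacies arithmetically, then rounded to two significant figures.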

Where [3] appears, read: CHO GLP-1R clone C6, arithmetic mean, relative to saturating GLP-1 (1 μM).
Setting [4] is: CHO GLP-1R clone H6, arithmetic mean, relative to saturating GLP-1 (1 μM).

Sequence of human GLP-1R (Homo sapiens, UniProt P43220, G168S) (P43220 24-463 G168S): as the sequence (P43220 24-463 L260F) above, with G145S, F237L counted along it

By Emax is commonly meant the greatest response seen or fitted, relative to the assay's reference. In the case of `N#Cc1ccc(COc2nc(C3CCN(Cc4nc5ccc(C(=O)O)cc5n4CC4CCCO4)CC3)ccc2F)cc1` (centres unmarked) [Compound 360B, 2-[(4-{6-[(4-cyanobenzyl)oxy]-5-fluoropyridin-2-yl}piperidin-1-yl)methyl]-1-(tetrahydrofuran-2-ylmethyl)-1H-benzimidazole-6-carboxylic acid], the figures for the maximal effect (Emax) in assay [1] (setting [3]) and in assay [2] (setting [4]) were 84% and 72%, respectively.

What is called EC50 is the concentration that produces a half-maximal response. In the case of `N#Cc1ccc(COc2cccc(C3CCN(Cc4nc5ccc(C(=O)O)cc5n4C[C@@H]4CCCO4)CC3)n2)cc1` [Compound 131B, 2-[(4-{6-[(4-cyanobenzyl)oxy]pyridin-2-yl}piperidin-1-yl)methyl]-1-[(2S)-tetrahydrofuran-2-ylmethyl]-1H-benzimidazole-6-carboxylic acid], the results for the EC50 in assay [1] and in assay [2] were 1000 nM and 45 nM, respectively. Moreover, the Emax is 84% in assay [1] (setting [3]) and 65% in assay [2] (setting [4]).

With `O=C(O)c1ccc2nc(CN3CCC(c4cccc(OCc5ccc(Cl)cc5F)n4)CC3)n(CCC3CCCCO3)c2c1` (centres unmarked) [Compound 280B, 2-[(4-{6-[(4-chloro-2-fluorobenzyl)oxy]pyridin-2-yl}piperidin-1-yl)methyl]-1-[2-(tetrahydro-2H-pyran-2-yl)ethyl]-1H-benzimidazole-6-carboxylic acid], the EC50 in assay [1] is 380 nM; in assay [2] it was 11 nM. The Emax in assay [1] (setting [3]) was determined as 96%; in assay [2] (setting [4]), 65%.

Consider `Cn1c(CN2CCC(c3cccc(OCc4ccc(OC(F)(F)F)cc4)n3)CC2)nc2ccc(C(=O)O)cc21` [Compound 228B, 1-methyl-2-{[4-(6-{[4-(trifluoromethoxy)benzyl]oxy}pyridin-2-yl)piperidin-1-yl]methyl}-1H-benzimidazole-6-carboxylic acid], for which the figures for the EC50 in assay [1] and in assay [2] were 99 nM and 6 nM, respectively. The results for the Emax in assay [1] (setting [3]) and in assay [2] (setting [4]) were 81% and 73%, respectively.

In the case of `N#Cc1ccc(COc2cccc(N3CCN(Cc4nc5ccc(C(=O)O)cc5n4Cc4ncco4)CC3)n2)c(F)c1` [Compound 140B, 2-[(4-{6-[(4-cyano-2-fluorobenzyl)oxy]pyridin-2-yl}piperazin-1-yl)methyl]-1-(1,3-oxazol-2-ylmethyl)-1H-benzimidazole-6-carboxylic acid], the results for the concentration giving a half-maximal response (EC50) in assay [1] and in assay [2] were 150 nM and 36 nM, respectively. The Emax was 92% in assay [1] (setting [3]) and 84% in assay [2] (setting [4]).

As for `COCCn1c(CN2CCC(c3cccc(OCc4cc(F)c(Cl)cc4F)n3)CC2)nc2ccc(C(=O)O)cc21` [Compound 219B, 2-((4-(6-((4-chloro-2,5-difluorobenzyl)oxy)pyridin-2-yl)piperidin-1-yl)methyl)-1-(2-methoxyethyl)-1H-benzo[d]imidazole-6-carboxylic acid], the values for the concentration giving a half-maximal response (EC50) in assay [1] and in assay [2] were 3.8 nM and 0.3 nM, respectively. For the same molecule, the maximal effect (Emax) in assay [1] (setting [3]) and in assay [2] (setting [4]) was 93% in each case.

In the case of `N#Cc1ccc(COc2cccc(C3CCN(Cc4nc5ccc(C(=O)O)cc5n4Cc4ccon4)CC3)n2)c(F)c1` [Compound 161B, 2-[(4-{6-[(4-cyano-2-fluorobenzyl)oxy]pyridin-2-yl}piperidin-1-yl)methyl]-1-(1,2-oxazol-3-ylmethyl)-1H-benzimidazole-6-carboxylic acid], the EC50 in assay [1] came to 13 nM; in assay [2] it was 1.1 nM. Moreover, the Emax was found to be 100% in assay [1] (setting [3]) and 79% in assay [2] (setting [4]).

As for `COCCn1c(CN2CCC(c3cccc(OCc4ccc(Cl)cc4F)n3)CC2)nc2ccc(C(=O)O)c(F)c21` [Compound 170B, 2-[(4-{6-[(4-chloro-2-fluorobenzyl)oxy]pyridin-2-yl}piperidin-1-yl)methyl]-7-fluoro-1-(2-methoxyethyl)-1H-benzimidazole-6-carboxylic acid], the concentration giving a half-maximal response (EC50) turned out to be 4000 nM in assay [1] and 79 nM in assay [2]. In addition, the Emax in assay [1] (setting [3]) stood at 75%; in assay [2] (setting [4]), 81%.

Turning to `N#Cc1ccc(COc2cccc(C3CCN(Cc4nc5ccc(C(=O)O)cc5n4CC4CCCO4)CC3)n2)cc1` (centres unmarked) [Compound 359B, 2-[(4-{6-[(4-cyanobenzyl)oxy]pyridin-2-yl}piperidin-1-yl)methyl]-1-(tetrahydrofuran-2-ylmethyl)-1H-benzimidazole-6-carboxylic acid], the results for the EC50 in assay [1] and in assay [2] were 55 nM and 1.9 nM, respectively. For the same molecule, the maximal response (Emax) in assay [1] (setting [3]) is 75%; in assay [2] (setting [4]), 63%.

As to `N#Cc1ccc(COc2cccc(C3CCN(Cc4nc5ccc(C(=O)O)cc5n4C[C@H]4CCO4)CC3)n2)c(F)c1` [Compound 111B, 2-[(4-{6-[(4-cyano-2-fluorobenzyl)oxy]pyridin-2-yl}piperidin-1-yl)methyl]-1-[(2R)-oxetan-2-ylmethyl]-1H-benzimidazole-6-carboxylic acid], the maximal effect (Emax) in assay [1] (setting [3]) turned out to be 67%; in assay [2] (setting [4]), 75%.

With `COCCn1c(CN2CCC(c3cccc(OCc4ccc(C)cc4)n3)CC2)nc2ccc(C(=O)O)cc21` [Compound 217B, Ammonium 2-((4-(6-((4-Methylbenzyl)oxy)pyridin-2-yl)piperidin-1-yl)methyl)-1-(2-methoxyethyl)-1H-benzo[d]imidazole-6-carboxylate], the concentration for a half-maximal effect (EC50) in assay [1] was 24 nM; in assay [2] it was 1.5 nM. Besides, the figures for the Emax in assay [1] (setting [3]) and in assay [2] (setting [4]) were 91% and 73%, respectively.

With `COCCn1c(CN2CC[C@H](c3cccc(OCc4ccc(Cl)cc4F)n3)[C@@H](F)C2)nc2ccc(C(=O)O)cc21` (racemic) [Compound 189B, rac 2-{[(3S,4S)-4-{6-[(4-chloro-2-fluorobenzyl)oxy]pyridin-2-yl}-3-fluoropiperidin-1-yl]methyl}-1-(2-methoxyethyl)-1H-benzimidazole-6-carboxylic acid], the EC50 in assay [1] turned out to be 1700 nM; in assay [2] it was 68 nM. Besides, the values for the Emax in assay [1] (setting [3]) and in assay [2] (setting [4]) were 110% and 77%, respectively.

With `C[C@H]1CN(c2cccc(OCc3ccc(C#N)cc3)n2)CCN1Cc1nc2ccc(C(=O)O)cc2n1C[C@@H]1CCO1` [Compound 138B, 2-{[(2S)-4-{6-[(4-cyanobenzyl)oxy]pyridin-2-yl}-2-methylpiperazin-1-yl]methyl}-1-[(2S)-oxetan-2-ylmethyl]-1H-benzimidazole-6-carboxylic acid], in assay [1] (setting [3]), the “Assay 2 Emax (%)” value was determined as 89%. Besides, the “Assay 1 Emax (%)” value in assay [2] (setting [4]) is 95%.

As for `O=C(O)c1ccc2nc(CN3CCC(c4cccc(OCc5ccc(Cl)cc5F)n4)CC3)n(Cc3cnco3)c2c1` [Compound 145B, 2-[(4-{6-[(4-chloro-2-fluorobenzyl)oxy]pyridin-2-yl}piperidin-1-yl)methyl]-1-(1,3-oxazol-5-ylmethyl)-1H-benzimidazole-6-carboxylic acid], the EC50 in assay [1] stood at 2200 nM; in assay [2] it was 120 nM. In addition, the values for the Emax in assay [1] (setting [3]) and in assay [2] (setting [4]) were 83% and 76%, respectively.

As for `CN1CCOC(CCn2c(CN3CCC(c4cccc(OCc5ccc(Cl)cc5F)n4)CC3)nc3ccc(C(=O)O)cc32)C1` (centres unmarked) [Compound 286B, 2-[(4-{6-[(4-chloro-2-fluorobenzyl)oxy]pyridin-2-yl}piperidin-1-yl)methyl]-1-[2-(4-methylmorpholin-2-yl)ethyl]-1H-benzimidazole-6-carboxylic acid], the EC50 in assay [1] was determined as 330 nM; in assay [2], 25 nM. Also, the Emax in assay [1] (setting [3]) came to 96%; in assay [2] (setting [4]), 78%.

As for `CC1(Cn2c(CN3CCC(c4cccc(OCc5ccc(Cl)cc5F)n4)CC3)nc3ccc(C(=O)O)cc32)CCOC1` (centres unmarked) [Compound 289B, 2-[(4-{6-[(4-chloro-2-fluorobenzyl)oxy]pyridin-2-yl}piperidin-1-yl)methyl]-1-[(3-methyltetrahydrofuran-3-yl)methyl]-1H-benzimidazole-6-carboxylic acid], the EC50 was determined as 1100 nM in assay [1] and 36 nM in assay [2]. For the same molecule, the maximal response (Emax) in assay [1] (setting [3]) amounted to 79%; in assay [2] (setting [4]) it was 73%.

Consider `O=C(O)c1ccc2nc(CN3CCC(c4cccc(OCc5ccc(F)cc5F)n4)CC3)n(Cc3cnco3)c2c1` [Compound 157B, 2-[(4-{6-[(2,4-difluorobenzyl)oxy]pyridin-2-yl}piperidin-1-yl)methyl]-1-(1,3-oxazol-5-ylmethyl)-1H-benzimidazole-6-carboxylic acid], for which the EC50 in assay [1] was determined as 220 nM; in assay [2] it was 8.5 nM. For the same molecule, the Emax in assay [1] (setting [3]) came out at 110%; in assay [2] (setting [4]), 88%.

Regarding `CN1CC(Cn2c(CN3CCC(c4cccc(OCc5ccc(Cl)cc5F)n4)CC3)nc3ccc(C(=O)O)cc32)C1` [Compound 243B, 2-[(4-{6-[(4-chloro-2-fluorobenzyl)oxy]pyridin-2-yl}piperidin-1-yl)methyl]-1-[(1-methylazetidin-3-yl)methyl]-1H-benzimidazole-6-carboxylic acid], the EC50 in assay [1] was determined as 84 nM; in assay [2], 4.7 nM. Besides, the maximal response (Emax) is 83% in assay [1] (setting [3]) and 71% in assay [2] (setting [4]).

Regarding `CC(C)c1cc(Cn2c(CN3CCC(c4cccc(OCc5ccc(Cl)cc5F)n4)CC3)nc3ccc(C(=O)O)cc32)on1` [Compound 281B, 2-[(4-{6-[(4-chloro-2-fluorobenzyl)oxy]pyridin-2-yl}piperidin-1-yl)methyl]-1-{[3-(propan-2-yl)-1,2-oxazol-5-yl]methyl}-1H-benzimidazole-6-carboxylic acid], the EC50 in assay [1] came to 270 nM; in assay [2], 14 nM. Further, the maximal effect (Emax) in assay [1] (setting [3]) is 92%; in assay [2] (setting [4]), 80%.

Turning to `CN1CCCC(Cn2c(CN3CCC(c4cccc(OCc5ccc(Cl)cc5F)n4)CC3)nc3ccc(C(=O)O)cc32)C1` (centres unmarked) [Compound 279B, 2-[(4-{6-[(4-chloro-2-fluorobenzyl)oxy]pyridin-2-yl}piperidin-1-yl)methyl]-1-[(1-methylpiperidin-3-yl)methyl]-1H-benzimidazole-6-carboxylic acid], the values for the concentration giving a half-maximal response (EC50) in assay [1] and in assay [2] were 410 nM and 11 nM, respectively. For the same molecule, the figures for the Emax in assay [1] (setting [3]) and in assay [2] (setting [4]) were 75% and 71%, respectively.
